Test results from patent publication US7166580B2, “Compounds which inhibit leukocyte adhesion mediated by VLA-4” (Elan Pharmaceuticals, Inc., priority 1997, dated 2007).
Square brackets hold non-standard residues; d marks the D form. Peptide text beside a SMILES is read from it. * marks the point of attachment. Dip = N[C@H](C(=O)O)C(c1ccccc1)c1ccccc1; Tos = Cc1ccc(S(=O)(=O)*)cc1; OBn = c1ccc(CO*)cc1; Sar = CNCC(=O)O

| SMILES | melting point [°C] |
| --- | --- |
| Cc1ccc(S(=O)(=O)NC(C(=O)N[C@@H](Cc2ccccc2)C(=O)O)c2ccccc2)cc1 (mixture of isomers) [Example 9, N-(Toluene-4-sulfonyl)-D,L-phenylglycyl-L-phenylalanine] | 150 to 152 |
| Cc1ccc(S(=O)(=O)N[C@H](C(=O)N[C@@H](Cc2ccccc2)C(=O)OCc2ccccc2)C(c2ccccc2)c2ccccc2)cc1 [Example 25, N-(Toluene-4-sulfonyl)-L-diphenylalanyl-L-phenylalanine Benzyl Ester] (Tos-[Dip]-Phe-OBn) | 79 to 84 |
| COC(=O)c1ccccc1S(=O)(=O)NCC(=O)N[C@@H](Cc1ccccc1)C(=O)O [Example 6, N-(2-Methoxycarbonylbenzenesulfonyl)-glycyl-L-phenylalanine] | 140 to 143 |
| Cc1ccc(S(=O)(=O)NC(C(=O)N[C@@H](Cc2ccccc2)C(=O)OCc2ccccc2)c2ccccc2)cc1 (mixture of isomers) [Example 29, N-(Toluene-4-sulfonyl)-D,L-phenylglycyl-L-phenylalanine Benzyl Ester] | 148 to 150 |
| Cc1ccc(S(=O)(=O)N[C@@H](C)C(=O)N[C@@H](Cc2ccccc2)C(=O)O)cc1 [Example 5, N-(Toluene-4-sulfonyl)-L-alanyl-L-phenylalanine] | 105 to 108 |
| Cc1ccc(S(=O)(=O)NCC(=O)N[C@@H](Cc2ccccc2)C(=O)O)cc1 [Example 3, N-(Toluene-4-sulfonyl)glycyl-L-phenylalanine] (Tos-Gly-Phe-OH) | 157 to 161 |
| Cc1ccc(S(=O)(=O)N(C)CC(=O)N[C@@H](Cc2ccccc2)C(=O)O)cc1 [Example 4, N-(Toluene-4-sulfonyl)sarcosyl-L-phenylalanine] (Tos-[Sar]-Phe-OH) | 128 to 130 |
| Cc1ccc(S(=O)(=O)N(C)CC(=O)N[C@@H](Cc2ccccc2)C(=O)OCc2ccccc2)cc1 [Example 21, N-(Toluene-4-sulfonyl)sarcosyl-L-phenylalanine Benzyl Ester] (Tos-[Sar]-Phe-OBn) | 80 to 82 |
| Cc1ccc(S(=O)(=O)N(C)C(C(=O)N[C@@H](Cc2ccccc2)C(=O)OCc2ccccc2)c2ccccc2)cc1 (mixture of isomers) [Example 30, N-(Toluene-4-sulfonyl)-N-methyl-D,L-phenylglycyl-L-phenylalanine Benzyl Ester] | 46 to 49 |
| Cc1ccc(S(=O)(=O)N[C@@H](C)C(=O)N[C@@H](Cc2ccccc2)C(=O)OCc2ccccc2)cc1 [Example 20, N-(Toluene-4-sulfonyl)-L-alanyl-L-phenylalanine Benzyl Ester] | 109 to 110 |
| CCOC(=O)[C@H](Cc1ccccc1)NC(=O)C(NS(=O)(=O)c1ccc(C)cc1)c1ccccc1 (mixture of isomers) [Example 22, N-(Toluene-4-sulfonyl)-D,L-phenylglycyl-L-phenylalanine Ethyl Ester] | 145 to 147 |
